Patent US20210120813A1, “INHIBITORS OF THE SHIKIMATE PATHWAY” (PEPTICOM LTD., priority 2018, published 2021)
Several values for one entry are separate records, joined by “and”; a condition that tells them apart may be missing. Equal entries are not always repeated. Entries after “also recorded” stand apart in the source; their conditions may differ. Where two headings read alike, the source gives them in different places.

Tests used:
[1] = system: EPSPS (TIPS mutant) from common wheat; type: cell-based, Triticum Aestivum
[2] = system: EPSPS (wild type) from common wheat; type: cell-based, Triticum Aestivum; conditions: for ability of rescued AB2829 bacteria cells (wild type EPSPS) to grow on M9 minimal media: 40 h, 0.1% rhamnose
[3] = system: EPSPS (TIPS mutant) from common wheat; type: cell-based, Triticum Aestivum; remark: listed apart in the source
[4] = system: Chenopodium album (CHEAL); experiment: Weed efficacy on petri dishes, germination and visual notation, CHEAL; type: in vivo; conditions: for CHEAL Visual notation Mean: scale 0 = as control to 100
[5] = system: Lolium multiflorum (LOLMU); experiment: Weed efficacy on petri dishes, germination and visual notation, LOLMU; type: in vivo; conditions: for LOLMU Visual notation Mean: scale 0 = as control to 100
WT EPSPS = WT EPSPS (Triticum aestivum, UniProt B5M6A1); experiment: In-vitro kinetics of EPSPS enzymatic activity (Malachite green phosphate release), WT; type: biochemical; conditions: apparent Km increases, Vmax unaffected; glyphosate vs PEP, compound 4 vs S3P
TIPS EPSPS = TIPS EPSPS (Triticum aestivum, UniProt B5M6A1, P172S/T168I); type: biochemical; conditions: for effect of the TIPS mutation on inhibition of EPSPS activity (IC50 WT vs TIPS): WT vs TIPS EPSPS enzyme
Sequence of TIPS EPSPS (B5M6A1 66-510 P172S/T168I limits assumed): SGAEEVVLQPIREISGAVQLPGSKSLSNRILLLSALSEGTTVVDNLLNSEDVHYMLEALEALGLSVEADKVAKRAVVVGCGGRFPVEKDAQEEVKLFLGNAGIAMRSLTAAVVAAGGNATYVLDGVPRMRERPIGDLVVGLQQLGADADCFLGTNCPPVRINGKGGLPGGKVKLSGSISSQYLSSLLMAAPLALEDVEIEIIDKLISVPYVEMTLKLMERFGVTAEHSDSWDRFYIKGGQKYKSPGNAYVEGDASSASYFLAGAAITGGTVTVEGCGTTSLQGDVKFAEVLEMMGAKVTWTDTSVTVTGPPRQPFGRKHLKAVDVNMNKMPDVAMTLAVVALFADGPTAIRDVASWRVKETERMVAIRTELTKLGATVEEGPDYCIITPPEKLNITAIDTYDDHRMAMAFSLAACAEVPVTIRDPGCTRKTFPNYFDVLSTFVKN

Sequence of WT EPSPS (B5M6A1 66-510 limits assumed): as the sequence (B5M6A1 66-510 P172S/T168I limits assumed) above, with I103T, S107P counted along it

O=C1NC(=O)c2c1ccc(O)c2O [Compound 13, 4,5-Dihydroxyisoindoline-1,3-dione]
% bacterial growth relative to rescue with mutant EPSPS at 20 mM, 40 h post application [1]: −31% | ability of rescued AB2829 bacteria cells (EPSPS TIPS) to grow on M9 minimal media ([1]; 20 mM, 40 h, 0.1% rhamnose): completely abolish | % bacterial growth relative to rescue with wild type EPSPS at 5 mM, 40 h post application [2]: −20% | ability of rescued AB2829 bacteria cells (wild type EPSPS) to grow on M9 minimal media ([2]; 5 mM): completely abolish | growth with gradually increasing rhamnose (EPSPS TIPS titration) ([3]; 0.25 mM, rhamnose 0%-0.4%, 60 h): could not facilitates growth in a gradual manner | rescue of growth phenotype by titration of EPSPS TIPS intracellular levels ([3]; single inhibitory dose, rhamnose 0.0%-0.4%): couldn't rescue the growth phenotype

O=C(O)c1cc([N+](=O)[O-])cc(C(F)(F)F)c1 [Compound 15, 3-Nitro-5-(trifluoromethyl) benzoic acid]
% bacterial growth relative to rescue with mutant EPSPS at 20 mM, 40 h post application [1]: −118% | ability of rescued AB2829 bacteria cells (EPSPS TIPS) to grow on M9 minimal media ([1]; 20 mM, 40 h, 0.1% rhamnose): completely abolish | % bacterial growth relative to rescue with wild type EPSPS at 5 mM, 40 h post application [2]: −177% | growth with gradually increasing rhamnose (EPSPS TIPS titration) ([3]; 0.6 mM, rhamnose 0%-0.4%, 60 h): facilitates growth in a gradual manner

CNc1ccc([N+](=O)[O-])cc1C(=O)O [Compound 8, -(Methylamino)-5-nitrobenzoic acid]
% bacterial growth relative to rescue with mutant EPSPS at 20 mM, 40 h post application [1]: −272% | ability of rescued AB2829 bacteria cells (EPSPS TIPS) to grow on M9 minimal media ([1]; 20 mM, 40 h, 0.1% rhamnose): completely abolish | CHEAL Germination (%) Mean ([4]; 50 mg a.i./L, 10 DAT): 90.0% | CHEAL Visual notation Mean ([4]; 50 mg a.i./L, 10 DAT): 21.8 | CHEAL Germination (%) Mean ([4]; 500 mg a.i./L, 10 DAT): 55.0% | CHEAL Visual notation Mean ([4]; 500 mg a.i./L, 10 DAT): 83.8 | CHEAL Germination (%) Mean ([4]; 5000 mg a.i./L, 10 DAT): 34.5% | CHEAL Visual notation Mean ([4]; 5000 mg a.i./L, 10 DAT): 95.0 | LOLMU Germination (%) Mean ([5]; 50 mg a.i./L, 10 DAT): 93.2% | LOLMU Visual notation Mean ([5]; 50 mg a.i./L, 10 DAT): 3.5 | LOLMU Germination (%) Mean ([5]; 500 mg a.i./L, 10 DAT): 91.1% | LOLMU Visual notation Mean ([5]; 500 mg a.i./L, 10 DAT): 6.6 | LOLMU Germination (%) Mean ([5]; 5000 mg a.i./L, 10 DAT): 30.4% | LOLMU Visual notation Mean ([5]; 5000 mg a.i./L, 10 DAT): 64.8

O=C(O)c1cccc(C(=O)O)c1O [Compound 5, 2-Hydroxy-1,3-benzenedicarboxylic acid]
% bacterial growth relative to rescue with mutant EPSPS at 20 mM, 40 h post application [1]: −220% | ability of rescued AB2829 bacteria cells (EPSPS TIPS) to grow on M9 minimal media ([1]; 20 mM, 40 h, 0.1% rhamnose): completely abolish

O=C(O)c1cc(C(F)(F)F)cc([N+](=O)[O-])c1F [Compound 16, 2-Fluoro-3-nitro-5-(trifluoromethyl)benzoic acid]
% bacterial growth relative to rescue with mutant EPSPS at 20 mM, 40 h post application [1]: −56% | ability of rescued AB2829 bacteria cells (EPSPS TIPS) to grow on M9 minimal media ([1]; 20 mM, 40 h, 0.1% rhamnose): completely abolish

O=C(O)c1cc([N+](=O)[O-])c(F)c(C(F)(F)F)c1 [Compound 14, 4-Fluoro-3-nitro-5-(trifluoromethyl)benzoic acid]
% bacterial growth relative to rescue with mutant EPSPS at 20 mM, 40 h post application [1]: −142% | ability of rescued AB2829 bacteria cells (EPSPS TIPS) to grow on M9 minimal media ([1]; 20 mM, 40 h, 0.1% rhamnose): completely abolish

Nc1cc(O)c([N+](=O)[O-])cc1C(=O)O [Compound 4, 2-Amino-4-hydroxy-5-nitrobenzoic acid]
% bacterial growth relative to rescue with mutant EPSPS at 20 mM, 40 h post application [1]: −94% | ability of rescued AB2829 bacteria cells (EPSPS TIPS) to grow on M9 minimal media ([1]; 20 mM, 40 h, 0.1% rhamnose): completely abolish | % bacterial growth relative to rescue with wild type EPSPS at 5 mM, 40 h post application [2]: −87% | ability of rescued AB2829 bacteria cells (wild type EPSPS) to grow on M9 minimal media ([2]; 5 mM): completely abolish | growth with gradually increasing rhamnose (EPSPS TIPS titration) ([3]; 1.0 mM, rhamnose 0%-0.4%, 60 h): facilitates growth in a gradual manner | mode of EPSPS inhibition (Michaelis-Menten and Lineweaver-Burk plots) (WT EPSPS): competitive inhibitor | inhibition of the TIPS mutant relative to glyphosate (TIPS EPSPS; IC50 comparison, TIPS EPSPS enzyme): one order of magnitude better | effect of the TIPS mutation on inhibition of EPSPS activity (IC50 WT vs TIPS) (TIPS EPSPS): hardly affected

COc1ccc(C(=O)O)cc1O [Compound 2, 3-Hydroxy-4-methoxybenzoic acid]
% bacterial growth relative to rescue with mutant EPSPS at 20 mM, 40 h post application [1]: −25% | ability of rescued AB2829 bacteria cells (EPSPS TIPS) to grow on M9 minimal media ([1]; 20 mM, 40 h, 0.1% rhamnose): completely abolish | % bacterial growth relative to rescue with wild type EPSPS at 5 mM, 40 h post application [2]: 27% | ability of rescued AB2829 bacteria cells (wild type EPSPS) to grow on M9 minimal media ([2]; 5 mM): completely abolish

COc1c(C(=O)O)ccc([N+](=O)[O-])c1O [Compound 1, 3-Hydroxy-2-methoxy-4-nitrobenzoic acid]
% bacterial growth relative to rescue with mutant EPSPS at 20 mM, 40 h post application [1]: −79% | ability of rescued AB2829 bacteria cells (EPSPS TIPS) to grow on M9 minimal media ([1]; 20 mM, 40 h, 0.1% rhamnose): completely abolish | % bacterial growth relative to rescue with wild type EPSPS at 5 mM, 40 h post application [2]: −15% | ability of rescued AB2829 bacteria cells (wild type EPSPS) to grow on M9 minimal media ([2]; 5 mM): completely abolish

O=C(O)c1cc([N+](=O)[O-])cc([N+](=O)[O-])c1O [Compound 6, 2-Hydroxy-3,5-dinitrobenzoic acid]
% bacterial growth relative to rescue with mutant EPSPS at 20 mM, 40 h post application [1]: −285% | ability of rescued AB2829 bacteria cells (EPSPS TIPS) to grow on M9 minimal media [1]: completely abolish

Nc1ccc([N+](=O)[O-])cc1C(=O)O [Compound 7, 2-Amino-5-nitrobenzoic acid]
% bacterial growth relative to rescue with mutant EPSPS at 20 mM, 40 h post application [1]: −260% | ability of rescued AB2829 bacteria cells (EPSPS TIPS) to grow on M9 minimal media ([1]; 20 mM, 40 h, 0.1% rhamnose): completely abolish

O=C(O)c1ccc(O)c([N+](=O)[O-])c1 [Compound 10, 4-Hydroxy-3-nitrobenzoic acid]
% bacterial growth relative to rescue with mutant EPSPS at 20 mM, 40 h post application [1]: −21% | ability of rescued AB2829 bacteria cells (EPSPS TIPS) to grow on M9 minimal media ([1]; 20 mM, 40 h, 0.1% rhamnose): completely abolish | % bacterial growth relative to rescue with wild type EPSPS at 5 mM, 40 h post application [2]: −61% | ability of rescued AB2829 bacteria cells (wild type EPSPS) to grow on M9 minimal media ([2]; 5 mM): completely abolish | growth with gradually increasing rhamnose (EPSPS TIPS titration) ([3]; 0.4 mM, rhamnose 0%-0.4%, 60 h): facilitates growth in a gradual manner | CHEAL Germination (%) Mean ([4]; 50 mg a.i./L, 10 DAT): 68.8% | CHEAL Visual notation Mean ([4]; 50 mg a.i./L, 10 DAT): 52.4 | CHEAL Germination (%) Mean ([4]; 500 mg a.i./L, 10 DAT): 81.7% | CHEAL Visual notation Mean ([4]; 500 mg a.i./L, 10 DAT): 54.4 | CHEAL Germination (%) Mean ([4]; 5000 mg a.i./L, 10 DAT): 56.7% | CHEAL Visual notation Mean ([4]; 5000 mg a.i./L, 10 DAT): 76.5 | LOLMU Germination (%) Mean ([5]; 50 mg a.i./L, 10 DAT): 95.6% | LOLMU Visual notation Mean ([5]; 50 mg a.i./L, 10 DAT): 18.4 | LOLMU Germination (%) Mean ([5]; 500 mg a.i./L, 10 DAT): 95.6% | LOLMU Visual notation Mean ([5]; 500 mg a.i./L, 10 DAT): 31.8 | LOLMU Germination (%) Mean ([5]; 5000 mg a.i./L, 10 DAT): 95.6% | LOLMU Visual notation Mean ([5]; 5000 mg a.i./L, 10 DAT): 54.0

O=C(O)c1cc([N+](=O)[O-])cc([N+](=O)[O-])c1 [Compound 11, 3,5-Dinitrobenzoic acid]
% bacterial growth relative to rescue with mutant EPSPS at 20 mM, 40 h post application [1]: −27% | ability of rescued AB2829 bacteria cells (EPSPS TIPS) to grow on M9 minimal media [1]: completely abolish | ability of rescued AB2829 bacteria cells (wild type EPSPS) to grow on M9 minimal media ([2]; 5 mM): completely abolish | % bacterial growth relative to rescue with wild type EPSPS at 5 mM, 40 h post application ([2]; 5 mM, 40 h post application, OD600, EPSPS null = 0%, Rescue = 100%): −38% | growth with gradually increasing rhamnose (EPSPS TIPS titration) [3]: facilitates growth in a gradual manner | CHEAL Germination (%) Mean ([4]; in vivo): 73.3% and 66.1% and 37.6% | LOLMU Germination (%) Mean ([5]; in vivo): 82.2% and 95.6%

O=C(O)c1cccc(O)c1O [Compound 3, 2,3-Dihydroxybenzoic acid]
% bacterial growth relative to rescue with mutant EPSPS at 20 mM, 40 h post application [1]: −105% | ability of rescued AB2829 bacteria cells (EPSPS TIPS) to grow on M9 minimal media ([1]; 20 mM, 40 h, 0.1% rhamnose): completely abolish | % bacterial growth relative to rescue with wild type EPSPS at 5 mM, 40 h post application [2]: 54% | ability of rescued AB2829 bacteria cells (wild type EPSPS) to grow on M9 minimal media ([2]; 5 mM): completely abolish | growth with gradually increasing rhamnose (EPSPS TIPS titration) ([3]; 2.5 mM, rhamnose 0%-0.4%, 60 h): facilitates growth in a gradual manner

O=C(O)CNCP(=O)(O)O [Glyphosate, N-(phosphonomethyl)glycine, reference compound]
% bacterial growth relative to rescue with mutant EPSPS at 20 mM, 40 h post application [1]: +127% (+/−37%) | ability of rescued AB2829 bacteria cells (EPSPS TIPS) to grow on M9 minimal media ([1]; 20 mM, 40 h, 0.1% rhamnose): TIPS mutant is indifferent to glyphosate; also recorded: facilitates growth | % bacterial growth relative to rescue with wild type EPSPS, 40 h post application [2]: +6.0% (0.7 mM) −46% (1.5 mM) | ability of rescued AB2829 bacteria cells (wild type EPSPS) to grow on M9 minimal media ([2]; 0.7 mM): could not facilitates growth | ability of rescued AB2829 bacteria cells (wild type EPSPS) to grow on M9 minimal media ([2]; 1.5 mM): could not facilitates growth | growth with gradually increasing rhamnose (EPSPS TIPS titration) [3]: facilitates growth in a gradual manner | mode of EPSPS inhibition (Michaelis-Menten and Lineweaver-Burk plots) (WT EPSPS): competitive inhibitor | effect of the TIPS mutation on inhibition of EPSPS activity (IC50 WT vs TIPS) (TIPS EPSPS): 3 orders of magnitude stronger

COC(=O)c1cc([N+](=O)[O-])cc([N+](=O)[O-])c1 [Compound 12, 3,5-Dinitrobenzoic acid methyl ester]
% bacterial growth relative to rescue with mutant EPSPS at 20 mM, 40 h post application [1]: −29% | ability of rescued AB2829 bacteria cells (EPSPS TIPS) to grow on M9 minimal media [1]: completely abolish | ability of rescued AB2829 bacteria cells (wild type EPSPS) to grow on M9 minimal media ([2]; 5 mM): completely abolish
